Drawing on patent publication US11555012B2 (Nimbus Artemis, Inc., priority 2018, dated 2023), this text covers IC50 for 33 molecules.

SMILES strings stand for the structures. Where only a bound is given, the exact number is not on record here.

The target of test [1] is T1, ACL (Homo sapiens (Human), UniProt P53396). The test is described as follows: ADP-Glo Assay.
Target sequence in this assay (P53396 other isoform, or with tags, fused parts or gaps isoform P53396-2): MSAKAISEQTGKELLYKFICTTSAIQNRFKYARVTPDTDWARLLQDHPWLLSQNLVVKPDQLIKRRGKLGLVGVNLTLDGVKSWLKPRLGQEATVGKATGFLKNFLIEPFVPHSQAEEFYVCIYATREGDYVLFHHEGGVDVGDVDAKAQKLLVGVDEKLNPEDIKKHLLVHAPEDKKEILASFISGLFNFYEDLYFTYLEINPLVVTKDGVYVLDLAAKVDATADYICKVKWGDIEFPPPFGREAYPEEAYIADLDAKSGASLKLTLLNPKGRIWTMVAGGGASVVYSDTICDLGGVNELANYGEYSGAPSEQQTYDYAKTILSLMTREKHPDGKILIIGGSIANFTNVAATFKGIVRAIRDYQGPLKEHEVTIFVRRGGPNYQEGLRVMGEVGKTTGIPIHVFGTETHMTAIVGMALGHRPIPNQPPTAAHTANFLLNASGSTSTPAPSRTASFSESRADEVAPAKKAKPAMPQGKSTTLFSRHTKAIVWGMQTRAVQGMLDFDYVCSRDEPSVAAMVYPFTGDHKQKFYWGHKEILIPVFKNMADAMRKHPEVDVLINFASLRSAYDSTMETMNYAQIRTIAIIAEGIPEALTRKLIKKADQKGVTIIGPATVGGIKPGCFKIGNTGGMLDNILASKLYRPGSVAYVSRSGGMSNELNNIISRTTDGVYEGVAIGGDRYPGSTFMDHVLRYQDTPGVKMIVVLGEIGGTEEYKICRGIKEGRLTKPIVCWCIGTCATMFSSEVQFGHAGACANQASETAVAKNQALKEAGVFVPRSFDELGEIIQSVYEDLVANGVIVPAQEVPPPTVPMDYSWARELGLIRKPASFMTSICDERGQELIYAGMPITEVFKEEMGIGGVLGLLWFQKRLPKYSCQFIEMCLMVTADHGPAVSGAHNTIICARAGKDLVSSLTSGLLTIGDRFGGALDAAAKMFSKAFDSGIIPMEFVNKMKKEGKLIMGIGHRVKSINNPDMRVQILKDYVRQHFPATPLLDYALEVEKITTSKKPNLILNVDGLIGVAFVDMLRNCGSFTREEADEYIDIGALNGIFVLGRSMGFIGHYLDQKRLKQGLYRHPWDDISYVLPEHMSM
Test [2] deals with T1, ACL. The test is described as follows: ACLY-MDH Coupled Assay.
Target sequence in this assay (P53396 whole entry, species assumed): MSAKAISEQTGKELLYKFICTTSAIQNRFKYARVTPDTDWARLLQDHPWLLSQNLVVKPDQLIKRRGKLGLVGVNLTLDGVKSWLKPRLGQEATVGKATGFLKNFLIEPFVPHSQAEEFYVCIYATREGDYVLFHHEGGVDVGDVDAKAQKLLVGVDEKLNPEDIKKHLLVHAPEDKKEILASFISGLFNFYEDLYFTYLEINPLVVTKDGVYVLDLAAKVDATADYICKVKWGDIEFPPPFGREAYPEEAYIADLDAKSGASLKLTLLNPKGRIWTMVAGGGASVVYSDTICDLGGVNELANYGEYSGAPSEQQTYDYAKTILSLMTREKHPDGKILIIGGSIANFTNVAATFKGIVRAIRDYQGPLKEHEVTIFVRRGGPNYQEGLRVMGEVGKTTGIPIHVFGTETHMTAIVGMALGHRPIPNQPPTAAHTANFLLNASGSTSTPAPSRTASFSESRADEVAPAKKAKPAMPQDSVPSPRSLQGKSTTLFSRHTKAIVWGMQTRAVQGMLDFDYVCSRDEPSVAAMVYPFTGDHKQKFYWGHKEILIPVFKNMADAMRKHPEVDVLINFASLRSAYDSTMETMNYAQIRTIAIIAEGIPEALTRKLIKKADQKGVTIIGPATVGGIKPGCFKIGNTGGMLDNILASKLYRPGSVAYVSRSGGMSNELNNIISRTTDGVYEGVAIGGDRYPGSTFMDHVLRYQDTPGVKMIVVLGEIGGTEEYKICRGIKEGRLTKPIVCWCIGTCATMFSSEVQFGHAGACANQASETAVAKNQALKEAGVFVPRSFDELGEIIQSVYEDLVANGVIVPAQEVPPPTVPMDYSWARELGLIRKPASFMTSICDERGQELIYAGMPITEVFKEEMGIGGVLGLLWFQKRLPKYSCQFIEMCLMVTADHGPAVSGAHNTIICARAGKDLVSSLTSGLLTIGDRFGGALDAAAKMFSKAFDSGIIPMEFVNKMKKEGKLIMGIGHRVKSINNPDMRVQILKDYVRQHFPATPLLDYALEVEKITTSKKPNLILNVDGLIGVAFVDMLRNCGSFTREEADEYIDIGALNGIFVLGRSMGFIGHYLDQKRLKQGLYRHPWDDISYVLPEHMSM
Procedure: Compounds of the present invention were evaluated in an ACLY Coupled Assay.
The assay protocol for the Coupled Assay (below) was followed:
b) Add 1 μL cpds to 96 assay plate, Test cpd conc: 100/30/10 μM top dose, 3 folds dilution, 10+0+control (control: buffer without ACL+DMSO) points, 1000 rpm for 1 min, incubation at 25° C. for 60 min
The mark [3] stands for this setting: read-out: ACL-ADP-Glo (IC50), 3 nM ACL, 15 μM ATP, 3 μM CoA, 300 μM Citrate.
Where [4] appears, read: read-out: ACL-MDH Coupled Assay (IC50), 8 nM ACL, 60 μM CoA Na2, 85 μM Citrate, 250 μM ATP, 250 μM NADH.

Turning to `COc1cc(Br)ccc1NS(=O)(=O)c1cc(Cl)cc(Cl)c1O` [I-11, N-(4-bromo-2-methoxyphenyl)-3,5-dichloro-2-hydroxybenzenesulfonamide], the IC50 – broadly, the concentration needed to halve the response being measured – against ACL [1] lay in the range of 0.5 to 20 µM; at ACL [2], 0.5 to 30 µM.
Consider `O=C(O)c1ccc(F)c(NS(=O)(=O)c2cc(Cl)cc(Cl)c2O)c1` [I-12, 3-((3,5-dichloro-2-hydroxyphenyl)sulfonamido)-4-fluorobenzoic Acid], for which the IC50 lay in the range of 0.5 to 20 µM against ACL [1] and 0.5 to 30 µM against ACL [2].
With `COc1ccc(-c2ccccc2)cc1NS(=O)(=O)c1cccc(-c2nn[nH]n2)c1` [I-19, N-(4-methoxy-[1,1′-biphenyl]-3-yl)-3-(2H-tetrazol-5-yl)benzenesulfonamide], the concentration for half-maximal inhibition (IC50) on ACL [1] was in the range of 0.5 to 20 µM; at ACL [2] it was 0.5 to 30 µM.
With `O=S(=O)(Nc1cc(-c2nn[nH]n2)ccc1F)c1cc(Cl)cc(Cl)c1O` [I-24, 3,5-dichloro-N-[2-fluoro-5-(2H-1,2,3,4-tetrazol-5-yl)phenyl]-2-hydroxybenzene-1-sulfonamide], the half-inhibitory concentration (IC50) at ACL [1] fell in the range of 0.5 to 20 µM; against ACL [2], 0.5 to 30 µM.
Turning to `O=S(=O)(Nc1cc(-c2ccccc2)ccc1O)c1cc(Cl)cc(Cl)c1O` [I-28, 3,5-dichloro-2-hydroxy-N-(2-hydroxy-5-phenylphenyl) benzene-1-sulfonamide], the IC50 fell in the range of 0.5 to 20 µM on ACL [1] and 0.05 to 0.5 µM against ACL [2].
`N#Cc1cc(Cl)cc(S(=O)(=O)Nc2cc(-c3ccccc3)ccc2F)c1O` [I-29, 5-chloro-3-cyano-N-(2-fluoro-5-phenylphenyl)-2-hydroxybenzene-1-sulfonamide]: the IC50 against ACL [1] was 0.5 to 20 µM; on ACL [2], 0.5 to 30 µM.
Consider `O=S(=O)(Nc1cc(-c2ccccc2)ccn1)c1cc(Cl)cc(Br)c1O` [I-32], for which the results for the IC50 at ACL [1] and on ACL [2] were 0.5 to 20 µM and 0.5 to 30 µM, respectively.
The corresponding values for `O=C(O)COc1c(Br)cc(Cl)cc1S(=O)(=O)Nc1cc(-c2ccccc2)ccc1F` [I-46, 2-(2-bromo-4-chloro-6-(N-(4-fluoro-[1,1′-biphenyl]-3-yl)sulfamoyl)phenoxy)acetic Acid] are 0.5 to 20 µM and 0.5 to 30 µM.
On to `COC(=O)c1cc(Cl)c(OC)c(S(=O)(=O)Nc2cc(-c3ccccc3)ccc2F)c1` [I-49, Methyl 3-chloro-5-(N-(4-fluoro-[1,1′-biphenyl]-3-yl)sulfamoyl)-4-methoxybenzoate], for which the concentration for half-maximal inhibition (IC50) against ACL [1] was 0.5 to 20 µM; at ACL [2], 0.5 to 30 µM.
Consider `CCC(=O)Oc1c(Cl)cc(Cl)cc1S(=O)(=O)Nc1cc(-c2ccccc2)ccc1F` [I-50, 2,4-dichloro-6-(N-(4-fluoro-[1,1′-biphenyl]-3-yl)sulfamoyl)phenyl propionate], for which the IC50 was in the range of 0.5 to 20 µM at ACL [1] and 0.5 to 30 µM on ACL [2].
As for `Nc1ccc(-c2ccccc2)cc1NS(=O)(=O)c1cc(Cl)cc(Br)c1O` [I-53, N-(2-amino-5-phenylphenyl)-3-bromo-5-chloro-2-hydroxybenzene-1-sulfonamide], the IC50 on ACL [1] lay in the range of 0.5 to 20 µM; on ACL [2], 0.5 to 30 µM.
As for `COc1ccc(-c2ccccc2)cc1NS(=O)(=O)c1cc(C(N)=O)cc(Cl)c1O` [I-55, 3-chloro-4-hydroxy-5-[(2-methoxy-5-phenylphenyl)sulfamoyl]benzamide], the IC50 against ACL [1] was in the range of 0.05 to 0.5 µM; at ACL [2], 0.5 to 30 µM.
Regarding `COc1ccc(-c2ccccc2)cc1NS(=O)(=O)c1cc(C(=O)N(C)C)cc(Cl)c1O` [I-56, 3-chloro-4-hydroxy-5-[(2-methoxy-5-phenylphenyl)sulfamoyl]-N,N-dimethylbenzamide], the 50% inhibitory concentration (IC50) against ACL [1] and at ACL [2] was 0.05 to 0.5 µM throughout.
For `COc1ccc(-c2ccccc2)cc1NS(=O)(=O)c1cc(C#N)cc(Cl)c1O` [I-58, 3-chloro-5-cyano-2-hydroxy-N-(2-methoxy-5-phenylphenyl)benzene-1-sulfonamide], the IC50 against ACL [1] and at ACL [2] was 0.05 to 0.5 µM each time.
`COc1c(Cl)cc(C(=O)O)cc1S(=O)(=O)Nc1cc(-c2ccccc2)c(F)cc1F` [I-62, 3-chloro-5-[(2,4-difluoro-5-phenylphenyl)sulfamoyl]-4-methoxybenzoic Acid]: the IC50 against ACL [1] lay within 0.5 to 20 µM; at ACL [2], 0.5 to 30 µM.
For `COc1ccc(-c2ccccc2)cc1NS(=O)(=O)c1cc(C(=O)NCCN)cc(Cl)c1O` [I-64, N-(2-aminoethyl)-3-chloro-4-hydroxy-5-[(2-methoxy-5-phenylphenyl)sulfamoyl]benzamide], the half-maximal inhibitory concentration (IC50) is 0.5 to 20 µM on ACL [1] and 0.5 to 30 µM against ACL [2].
Take `CNC(=O)c1cc(Cl)c(O)c(S(=O)(=O)Nc2cc(-c3ccccc3)ccc2OC)c1` [I-66, 3-chloro-4-hydroxy-5-[(2-methoxy-5-phenylphenyl)sulfamoyl]-N-methylbenzamide]: the results for the IC50 against ACL [1] and on ACL [2] were 0.05 to 0.5 µM and 0.5 to 30 µM, respectively.
`O=S(=O)(c1cc(Cl)cc(Cl)c1O)N(Cc1ccccc1)Cc1cccc(-c2ccccc2)c1` [I-67, N-([1,1′-biphenyl]-3-ylmethyl)-N-benzyl-3,5-dichloro-2-hydroxybenzenesulfonamide]: the IC50 against ACL [1] lay in the range of 0.5 to 20 µM; against ACL [2] it was 0.5 to 30 µM.
As for `COC(=O)c1cc(Cl)c(O)c(S(=O)(=O)Nc2ccc(F)cc2F)c1` [I-74, Methyl 3-chloro-5-(N-(2,4-difluorophenyl)sulfamoyl)-4-hydroxybenzoate], the results for the IC50 at ACL [1] and at ACL [2] were 0.05 to 0.5 µM and 0.5 to 30 µM, respectively.
On the same counts, the results for `CNC(=O)c1cc(Cl)c(O)c(S(=O)(=O)Nc2cc(-c3ccccc3)c(F)cc2F)c1` [I-92, 3-chloro-5-[(2,4-difluoro-5-phenylphenyl)sulfamoyl]-4-hydroxy-N-methylbenzamide] are 0.05 to 0.5 µM and 0.05 to 0.5 µM.
Take `CC(C)NC(=O)c1cc(Cl)c(O)c(S(=O)(=O)Nc2cc(-c3ccccc3)c(F)cc2F)c1` [I-93]: the values for the IC50 at ACL [1] (setting [3]) and at ACL [2] were below 0.05 µM and 0.05 to 0.5 µM, respectively.
`COC(=O)Cc1cc(Cl)c(O)c(S(=O)(=O)Nc2cc(-c3ccccc3)ccc2OC)c1` [I-94, Methyl 2-[3-chloro-4-hydroxy-5-[(2-methoxy-5-phenylphenyl)sulfamoyl]phenyl]acetate]: the IC50 on ACL [1] lay within 0.5 to 20 µM; against ACL [2], 0.5 to 30 µM.
Regarding `O=C(O)c1cc(Cl)c(O)c(S(=O)(=O)Nc2cc(-c3ccccc3)c(F)cc2F)c1` [I-95, 3-chloro-5-(N-(4,6-difluoro-[1,1′-biphenyl]-3-yl)sulfamoyl)-4-hydroxybenzoic Acid], the half-inhibitory concentration (IC50) on ACL [1] and at ACL [2] was 0.05 to 0.5 µM throughout.
For the molecule `O=C(c1cc(Cl)c(O)c(S(=O)(=O)Nc2cc(-c3ccccc3)c(F)cc2F)c1)N1CCOCC1` [I-99, 3-chloro-N-(4,6-difluoro-[1,1′-biphenyl]-3-yl)-2-hydroxy-5-(morpholine-4-carbonyl)benzenesulfonamide], the IC50 against ACL [1] was in the range of 0.5 to 20 µM; at ACL [2] it was 0.5 to 30 µM.
Take `O=C(c1cc(Cl)c(O)c(S(=O)(=O)Nc2cc(-c3ccccc3)c(F)cc2F)c1)N1Cc2ccccc2C1` [I-100, 3-chloro-N-(4,6-difluoro-[1,1′-biphenyl]-3-yl)-2-hydroxy-5-(isoindoline-2-carbonyl)benzenesulfonamide]: the IC50 against ACL [1] is 0.05 to 0.5 µM; on ACL [2], 0.5 to 30 µM.
`O=C(c1cc(Cl)c(O)c(S(=O)(=O)Nc2cc(-c3ccccc3)c(F)cc2F)c1)N1CCCCC1` [I-102, 3-chloro-N-(2,4-difluoro-5-phenylphenyl)-2-hydroxy-5-[(piperidin-1-yl)carbonyl]benzene-1-sulfonamide]: the IC50 was in the range of 0.05 to 0.5 µM at ACL [1] and 0.5 to 30 µM on ACL [2].
Consider `CO[C@H]1CCN(C(=O)c2cc(Cl)c(O)c(S(=O)(=O)Nc3cc(-c4ccccc4)c(F)cc3F)c2)C1` [I-103, 3-chloro-N-(2,4-difluoro-5-phenylphenyl)-2-hydroxy-5-[[(3S)-3-methoxypyrrolidin-1-yl]carbonyl]benzene-1-sulfonamide], for which the IC50 at ACL [1] (setting [3]) and on ACL [2] (setting [4]) was below 0.05 µM each time.
On to `CO[C@@H]1CCN(C(=O)c2cc(Cl)c(O)c(S(=O)(=O)Nc3cc(-c4ccccc4)c(F)cc3F)c2)C1` [I-104, 3-chloro-N-(2,4-difluoro-5-phenylphenyl)-2-hydroxy-5-[[(3R)-3-methoxypyrrolidin-1-yl]carbonyl]benzene-1-sulfonamide], for which the figures for the IC50 against ACL [1] and against ACL [2] were 0.05 to 0.5 µM and 0.5 to 30 µM, respectively.
Consider `O=C(c1cc(Cl)c(O)c(S(=O)(=O)Nc2cc(-c3ccccc3)c(F)cc2F)c1)N1CC[C@H](O)C1` [I-105, (S)-3-chloro-N-(4,6-difluoro-[1,1′-biphenyl]-3-yl)-2-hydroxy-5-(3-hydroxypyrrolidine-1-carbonyl)benzenesulfonamide], for which the IC50 at ACL [1] (setting [3]) and on ACL [2] (setting [4]) was below 0.05 µM throughout.
For the molecule `O=C(c1cc(Cl)c(O)c(S(=O)(=O)Nc2cc(-c3ccccc3)c(F)cc2F)c1)N1CC[C@@H](O)C1` [I-106, (R)-3-chloro-N-(4,6-difluoro-[1,1′-biphenyl]-3-yl)-2-hydroxy-5-(3-hydroxypyrrolidine-1-carbonyl)benzenesulfonamide], the IC50 is below 0.05 µM on ACL [1] (setting [3]) and 0.05 to 0.5 µM against ACL [2].
For the molecule `O=C(O)c1cc(Cl)c(O)c(S(=O)(=O)Nc2cc(-c3ccccc3)ccc2F)c1` [I-107, 3-chloro-5-[(2-fluoro-5-phenylphenyl)sulfamoyl]-4-hydroxybenzoic Acid], the IC50 at ACL [1] was in the range of 0.5 to 20 µM; against ACL [2], 0.5 to 30 µM.
Consider `CC(=O)NCCOC(=O)c1cc(Cl)c(O)c(S(=O)(=O)Nc2cc(-c3ccccc3)c(F)cc2F)c1` [I-112, 2-acetamidoethyl 3-chloro-5-(N-(4,6-difluoro-[1,1′-biphenyl]-3-yl)sulfamoyl)-4-hydroxybenzoate], for which the IC50 on ACL [1] (setting [3]) is below 0.05 µM; against ACL [2], 0.05 to 0.5 µM.
As for `O=C(O)c1cc(Cl)c(O)c(S(=O)(=O)Nc2cc(-c3ccccc3)cc(F)c2F)c1` [I-115, 3-chloro-5-[(2,3-difluoro-5-phenylphenyl)sulfamoyl]-4-hydroxybenzoic Acid], the IC50 at ACL [1] was 0.5 to 20 µM; on ACL [2], 0.5 to 30 µM.
